# Literature values in patent publication US7442709B2, “N3-substituted imidazopyridine c-Kit inhibitors” (OSI Pharmaceuticals, Inc., priority 2003, dated 2008).
# Counter-ions that a name gives are not always drawn.
# Experiments:
# [1] = test system: MO7e human leukemia cells
# [2] = test system: MO7e human leukemia cells; details: GM-CSF stimulation
structure (smiles),measurement,setting,value
"Cc1ccc(NC(=O)c2ccc(CN3CCN(C)CC3)cc2)cc1Nc1nccc(-c2cccnc2)n1 [Gleevec, imatinib mesylate]",Kit ligand-stimulated growth of MO7e human leukemia cells,[1]; Kit ligand stimulation,inhibited
same,Apoptosis in MO7e human leukemia cells,[1]; under Kit ligand-stimulated growth conditions,induces apoptosis
same,GM-CSF stimulated growth of MO7e human leukemia cells,[2],not affected
